# Assay results: ChEMBL document CHEMBL3885881, “DrugMatrix”
# Species: Rattus norvegicus
# Test: DrugMatrix - Regimen: Daily Repeat
# Type: toxicity, organism-based, Sprague-Dawley
# Design: regimen Daily Repeat, gender Male, age 6-8 weeks
# Settings: in vivo, po, route oral GAVAGE, […]; for ABSOLUTE BASOPHIL / ABSOLUTE EOSINOPHIL / ABSOLUTE LYMPHOCYTE / ABSOLUTE MONOCYTE / ABSOLUTE SEGMENTED NEUTROPHIL / BASOPHIL / EOSINOPHIL / ERYTHROCYTE COUNT / HEMATOCRIT / HEMOGLOBIN / LEUKOCYTE COUNT / LYMPHOCYTE / MEAN CORPUSCULAR HEMOGLOBIN / MEAN CORPUSCULAR HEMOGLOBIN CONCENTRATION / MEAN CORPUSCULAR VOLUME / MONOCYTE / NEUTROPHIL / NUCLEATED RED BLOOD CELLS / PLATELET COUNT: tissue Blood; for ALANINE AMINOTRANSFERASE / ALBUMIN / ALKALINE PHOSPHATASE / ASPARTATE AMINOTRANSFERASE / BLOOD UREA NITROGEN / CARBON DIOXIDE / CHLORIDE / CHOLESTEROL / CREATINE PHOSPHOKINASE / CREATININE / GLUCOSE / LACTATE DEHYDROGENASE / LIPASE / PHOSPHORUS / POTASSIUM / SODIUM / TOTAL BILIRUBIN / TOTAL PROTEIN / URIC ACID: tissue Plasma
# [1] = 75 mg/kg, 72 h, dose level High, time 3 day
# [2] = 75 mg/kg, 120 h, dose level High, time 5 day
# [3] = 72 h, dose 7.5 mg/Kg, dose level Low, time 3 day
# [4] = 120 h, dose 7.5 mg/Kg, dose level Low, time 5 day
structure (smiles),measurement,setting,value
C[C@@H]1CC[C@@]2(OC1)O[C@H]1[C@@H](O)[C@H]3[C@@H]4CC[C@H]5C[C@@H](O[C@@H]6O[C@H](CO)[C@H](O[C@@H]7O[C@H](CO)C(O)[C@H](O[C@@H]8OC[C@@H](O)[C@H](O)[C@H]8O)[C@H]7O[C@@H]7O[C@H](CO)[C@H](O)[C@H](O[C@@H]8O[C@H](CO)[C@@H](O)[C@H](O)[C@H]8O)[C@H]7O)[C@H](O)[C@H]6O)[C@H](O)C[C@]5(C)[C@H]4CC[C@]3(C)[C@H]1[C@@H]2C (some centres not stated) [DIGITONIN],ABSOLUTE BASOPHIL,[1],0 CELLS/uL
same,ABSOLUTE EOSINOPHIL,[1],39.67 CELLS/uL
same,ABSOLUTE LYMPHOCYTE,[1],12631.67 CELLS/uL
same,ABSOLUTE MONOCYTE,[1],0 CELLS/uL
same,ABSOLUTE SEGMENTED NEUTROPHIL,[1],1028.67 CELLS/uL
same,BASOPHIL,[1],0%
same,EOSINOPHIL,[1],0.33%
same,ERYTHROCYTE COUNT,[1],5.46 x10E6/uL
same,HEMATOCRIT,[1],34.9%
same,HEMOGLOBIN,[1],13.03 G/DL
same,LEUKOCYTE COUNT,[1],13.7 x10E3/uL
same,LYMPHOCYTE,[1],92.33%
same,MEAN CORPUSCULAR HEMOGLOBIN,[1],23.83 pg
same,MEAN CORPUSCULAR HEMOGLOBIN CONCENTRATION,[1],37.37 G/DL
same,MEAN CORPUSCULAR VOLUME,[1],63.8 fL
same,MONOCYTE,[1],0%
same,NEUTROPHIL,[1],7.33%
same,NUCLEATED RED BLOOD CELLS,[1],0 /100WBC
same,PLATELET COUNT,[1],1082.67 x10E3/uL
same,ALANINE AMINOTRANSFERASE,[1],64 u/L
same,ALBUMIN,[1],4.23 G/DL
same,ALKALINE PHOSPHATASE,[1],395.33 u/L
same,ASPARTATE AMINOTRANSFERASE,[1],86.33 u/L
same,BLOOD UREA NITROGEN,[1],16.67 mg/dL
same,CARBON DIOXIDE,[1],25.33 mmol/L
same,CHLORIDE,[1],102 MEQ/L
same,CHOLESTEROL,[1],78 mg/dL
same,CREATINE PHOSPHOKINASE,[1],233.67 u/L
same,CREATININE,[1],0.17 mg/dL
same,GLUCOSE,[1],178.33 mg/dL
same,LACTATE DEHYDROGENASE,[1],118.33 u/L
same,LIPASE,[1],9 u/L
same,PHOSPHORUS,[1],13.13 mg/dL
same,POTASSIUM,[1],6.32 MEQ/L
same,SODIUM,[1],144.17 MEQ/L
same,TOTAL BILIRUBIN,[1],0.23 mg/dL
same,TOTAL PROTEIN,[1],5.93 G/DL
same,URIC ACID,[1],2.1 mg/dL
same,ABSOLUTE BASOPHIL,[2],0 CELLS/uL
same,ABSOLUTE EOSINOPHIL,[2],43.33 CELLS/uL
same,ABSOLUTE LYMPHOCYTE,[2],6877 CELLS/uL
same,ABSOLUTE MONOCYTE,[2],37 CELLS/uL
same,ABSOLUTE SEGMENTED NEUTROPHIL,[2],776 CELLS/uL
same,BASOPHIL,[2],0%
same,EOSINOPHIL,[2],0.67%
same,ERYTHROCYTE COUNT,[2],5.49 x10E6/uL
same,HEMATOCRIT,[2],35.43%
same,HEMOGLOBIN,[2],13.27 G/DL
same,LEUKOCYTE COUNT,[2],7.73 x10E3/uL
same,LYMPHOCYTE,[2],89.33%
same,MEAN CORPUSCULAR HEMOGLOBIN,[2],24.17 pg
same,MEAN CORPUSCULAR HEMOGLOBIN CONCENTRATION,[2],37.47 G/DL
same,MEAN CORPUSCULAR VOLUME,[2],64.5 fL
same,MONOCYTE,[2],0.33%
same,NEUTROPHIL,[2],9.67%
same,NUCLEATED RED BLOOD CELLS,[2],0 /100WBC
same,PLATELET COUNT,[2],1285 x10E3/uL
same,ALANINE AMINOTRANSFERASE,[2],65.67 u/L
same,ALBUMIN,[2],4.4 G/DL
same,ALKALINE PHOSPHATASE,[2],444.33 u/L
same,ASPARTATE AMINOTRANSFERASE,[2],85.67 u/L
same,BLOOD UREA NITROGEN,[2],15.67 mg/dL
same,CARBON DIOXIDE,[2],24 mmol/L
same,CHLORIDE,[2],100 MEQ/L
same,CHOLESTEROL,[2],62 mg/dL
same,CREATINE PHOSPHOKINASE,[2],202.67 u/L
same,CREATININE,[2],0.15 mg/dL
same,GLUCOSE,[2],146.67 mg/dL
same,LACTATE DEHYDROGENASE,[2],137.67 u/L
same,LIPASE,[2],8.33 u/L
same,PHOSPHORUS,[2],10.97 mg/dL
same,POTASSIUM,[2],5.88 MEQ/L
same,SODIUM,[2],147.6 MEQ/L
same,TOTAL BILIRUBIN,[2],0.23 mg/dL
same,TOTAL PROTEIN,[2],6 G/DL
same,URIC ACID,[2],0.83 mg/dL
same,ABSOLUTE BASOPHIL,[3],0 CELLS/uL
same,ABSOLUTE EOSINOPHIL,[3],77.33 CELLS/uL
same,ABSOLUTE LYMPHOCYTE,[3],10391.33 CELLS/uL
same,ABSOLUTE MONOCYTE,[3],34.33 CELLS/uL
same,ABSOLUTE SEGMENTED NEUTROPHIL,[3],1397 CELLS/uL
same,BASOPHIL,[3],0%
same,EOSINOPHIL,[3],0.67%
same,ERYTHROCYTE COUNT,[3],5.69 x10E6/uL
same,HEMATOCRIT,[3],35.5%
same,HEMOGLOBIN,[3],13.27 G/DL
same,LEUKOCYTE COUNT,[3],11.9 x10E3/uL
same,LYMPHOCYTE,[3],87.33%
same,MEAN CORPUSCULAR HEMOGLOBIN,[3],23.33 pg
same,MEAN CORPUSCULAR HEMOGLOBIN CONCENTRATION,[3],37.4 G/DL
same,MEAN CORPUSCULAR VOLUME,[3],62.47 fL
same,MONOCYTE,[3],0.33%
same,NEUTROPHIL,[3],11.67%
same,NUCLEATED RED BLOOD CELLS,[3],0 /100WBC
same,PLATELET COUNT,[3],1266.67 x10E3/uL
same,ALANINE AMINOTRANSFERASE,[3],59.33 u/L
same,ALBUMIN,[3],4.13 G/DL
same,ALKALINE PHOSPHATASE,[3],424 u/L
same,ASPARTATE AMINOTRANSFERASE,[3],79 u/L
same,BLOOD UREA NITROGEN,[3],14 mg/dL
same,CARBON DIOXIDE,[3],25.67 mmol/L
same,CHLORIDE,[3],100.67 MEQ/L
same,CHOLESTEROL,[3],70.67 mg/dL
same,CREATINE PHOSPHOKINASE,[3],187 u/L
same,CREATININE,[3],0.18 mg/dL
same,GLUCOSE,[3],156.33 mg/dL
same,LACTATE DEHYDROGENASE,[3],100.33 u/L
same,LIPASE,[3],8.67 u/L
same,PHOSPHORUS,[3],12.73 mg/dL
same,POTASSIUM,[3],6.51 MEQ/L
same,SODIUM,[3],145.03 MEQ/L
same,TOTAL BILIRUBIN,[3],0.23 mg/dL
same,TOTAL PROTEIN,[3],5.73 G/DL
same,URIC ACID,[3],2.23 mg/dL
same,ABSOLUTE BASOPHIL,[4],0 CELLS/uL
same,ABSOLUTE EOSINOPHIL,[4],102 CELLS/uL
same,ABSOLUTE LYMPHOCYTE,[4],14620 CELLS/uL
same,ABSOLUTE MONOCYTE,[4],219 CELLS/uL
same,ABSOLUTE SEGMENTED NEUTROPHIL,[4],1792.33 CELLS/uL
same,BASOPHIL,[4],0%
same,EOSINOPHIL,[4],0.67%
same,ERYTHROCYTE COUNT,[4],5.47 x10E6/uL
same,HEMATOCRIT,[4],35.23%
same,HEMOGLOBIN,[4],13.57 G/DL
same,LEUKOCYTE COUNT,[4],16.73 x10E3/uL
same,LYMPHOCYTE,[4],87.33%
same,MEAN CORPUSCULAR HEMOGLOBIN,[4],24.83 pg
same,MEAN CORPUSCULAR HEMOGLOBIN CONCENTRATION,[4],38.5 G/DL
same,MEAN CORPUSCULAR VOLUME,[4],64.37 fL
same,MONOCYTE,[4],1.33%
same,NEUTROPHIL,[4],10.67%
same,NUCLEATED RED BLOOD CELLS,[4],0 /100WBC
same,PLATELET COUNT,[4],1216 x10E3/uL
same,ALANINE AMINOTRANSFERASE,[4],57.33 u/L
same,ALBUMIN,[4],4.3 G/DL
same,ALKALINE PHOSPHATASE,[4],437 u/L
same,ASPARTATE AMINOTRANSFERASE,[4],80.33 u/L
same,BLOOD UREA NITROGEN,[4],14.67 mg/dL
same,CARBON DIOXIDE,[4],28.67 mmol/L
same,CHLORIDE,[4],100.67 MEQ/L
same,CHOLESTEROL,[4],53.67 mg/dL
same,CREATINE PHOSPHOKINASE,[4],222.67 u/L
same,CREATININE,[4],0.22 mg/dL
same,GLUCOSE,[4],160.33 mg/dL
same,LACTATE DEHYDROGENASE,[4],207.67 u/L
same,LIPASE,[4],8 u/L
same,PHOSPHORUS,[4],11.63 mg/dL
same,POTASSIUM,[4],6.09 MEQ/L
same,SODIUM,[4],144.37 MEQ/L
same,TOTAL BILIRUBIN,[4],0.2 mg/dL
same,TOTAL PROTEIN,[4],6.03 G/DL
same,URIC ACID,[4],1.47 mg/dL
